According to US7041785B1, “B1-bradykinin receptor antagonists and use thereof” (Université de Sherbrooke, priority 1996, dated 2006):
Non-standard residues stand in square brackets, D forms with d. Residues, ends and D or L forms follow the SMILES beside them. d2Nal = N[C@H](Cc1ccc2ccccc2c1)C(=O)O; Hyp = O=C(O)[C@@H]1C[C@@H](O)CN1; dTic = O=C(O)[C@H]1Cc2ccccc2CN1; Sar = CNCC(=O)O

Key:
[1] = molecular target: T1, B1 receptor (Oryctolagus cuniculus, UniProt P48748); test: cell-based; conditions: for Kb: Rb.A. pA2, apparent affinity as antagonist vs desArg9BK
T1 sequence (P48748 1-352): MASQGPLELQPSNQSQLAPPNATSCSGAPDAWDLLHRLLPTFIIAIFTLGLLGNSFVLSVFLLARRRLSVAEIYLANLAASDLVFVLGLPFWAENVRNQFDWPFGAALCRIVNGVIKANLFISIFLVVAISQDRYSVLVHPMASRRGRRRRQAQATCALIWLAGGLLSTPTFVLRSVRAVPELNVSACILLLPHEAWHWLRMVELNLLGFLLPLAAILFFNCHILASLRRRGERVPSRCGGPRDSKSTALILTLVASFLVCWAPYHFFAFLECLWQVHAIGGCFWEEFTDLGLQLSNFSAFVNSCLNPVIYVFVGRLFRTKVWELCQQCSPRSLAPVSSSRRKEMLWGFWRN
In short: (§1)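 Isolated rabbit jugular vein (captopril 1 μmol/L), guinea pig ileum, endothelium-free rabbit aorta and human umbilical vein, in Krebs at 37 °C, with isometric tension recorded. Agonism was tested at 10 μg/mL.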

[2] = molecular target: T2, B2 receptor (Cavia porcellus, UniProt O70526); test: cell-based; conditions: for G.P.I. pA2: vs BK, Inactive = no detectable antagonistic effect at ≦ 10 μg/ml, F.ag. full agonist, P.ag. partial agonist
T2 sequence (O70526 1-372): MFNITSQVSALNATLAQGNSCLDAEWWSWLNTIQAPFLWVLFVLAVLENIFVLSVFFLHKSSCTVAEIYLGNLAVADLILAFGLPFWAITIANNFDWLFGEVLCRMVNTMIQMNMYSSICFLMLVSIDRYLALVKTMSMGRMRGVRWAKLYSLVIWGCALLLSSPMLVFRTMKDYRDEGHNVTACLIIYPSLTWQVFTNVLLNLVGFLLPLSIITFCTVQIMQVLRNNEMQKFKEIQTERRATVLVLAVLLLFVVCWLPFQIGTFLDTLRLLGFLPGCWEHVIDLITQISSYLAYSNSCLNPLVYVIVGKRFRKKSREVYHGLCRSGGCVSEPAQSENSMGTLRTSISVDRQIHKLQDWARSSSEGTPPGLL
In short: as §1

[3] = molecular target: T3, human B2 receptor (Homo sapiens, UniProt P30411); test: Human umbilical vein bioassay in presence of Lys(Leu8)desArg9BK, B2 receptor; type: cell-based; conditions: vs BK, Lys(Leu8)desArg9BK 1 μmol/L present
T3 construct: Helical strips of HUV were prepared according to Gobeil et al; from tissue; host or cells: human umbilical vein helical strips
T3 sequence (P30411 1-391): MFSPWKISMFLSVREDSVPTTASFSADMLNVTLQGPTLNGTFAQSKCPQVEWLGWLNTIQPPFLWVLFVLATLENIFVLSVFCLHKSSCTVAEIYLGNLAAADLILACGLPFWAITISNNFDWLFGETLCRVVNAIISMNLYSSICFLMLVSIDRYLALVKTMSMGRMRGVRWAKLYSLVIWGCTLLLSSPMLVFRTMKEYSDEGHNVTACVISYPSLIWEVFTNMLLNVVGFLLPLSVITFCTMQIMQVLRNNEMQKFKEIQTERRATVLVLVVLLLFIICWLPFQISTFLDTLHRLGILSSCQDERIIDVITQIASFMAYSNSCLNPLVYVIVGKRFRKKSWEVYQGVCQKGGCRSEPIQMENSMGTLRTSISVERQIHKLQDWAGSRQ
Excerpt: Tissues were taken from New Zealand white rabbits (1.5–2.5 kg) and Dunken Hartley guinea pigs (250–350 g) of either sex, killed by stunning and exsanguination. Umbilical cords were taken from healthy women 22–40 years old after spontaneous delivery at term. The rabbit jugular vein (RbJV), the guinea pig ileum (GPI), two preparations containing B2 receptors, the rabbit aorta (RbA) (B1 receptor) and the human umbilical vein (HUV), a mixed preparation containing both B1 and B2 receptors^10, were used. Helical strips of RbJV treated with 1 μmol/L of captopril to avoid peptide degradation by the angiotensin-converting enzyme (ACE), alias kininase II were prepared according to Gaudreau et al.^11 Helical strips of RbA devoid of endothelium were prepared according to Furchgott and Bhadrakom^12. Longitudinal segments of GPI were prepared with the procedure described by Rang^13. Helical strips of HUV were prepared according to Gobeil et al.^10. The tissues were suspended in 10-ml organ baths containing warm (37EC), oxygenated (95% O2–5% CO2) Krebs solution of the following composition in mmol/L; NaCl: 118.1; KCl: 4.7; CaCl26H2O: 2.5; KH2PO4: 1.2; MgSO47H2O: 1.18; NaHCO3: 25.0 and D-Glucose: 5.5. The RbA and the HUV were stretched with an initial tension of 2 g, whereas the RbJV and the GPI were loaded with 0.5 g. Changes of tension produced by the various agents were measured with Grass isometric transducers (model FT 03C, Grass Instrument Co., Quincy, Mass.). […] Before testing the drugs, the tissues were allowed to equilibrate for 60–120 min during which time the tissues were repeatedly washed and the tension readjusted every 15 min.
At the beginning of each experiment, a submaximal dose of bradykinin (BK) (9 nmol/L), was applied repeatedly on the RbJV, the GPI or the HUV to ensure that tissues responded with stable contractions. […] A similar protocol was used for the HUV.
Repeated applications of a singl and double concentration of BK (on RbJV, GPI and HUV) and of desArg^9BK (RbA and HUV) were made in the absence and in presence of the various peptides to evaluate their apparent affinities as antagonists, in terms of pA2 (-log10 of the molar concentration of antagonist that reduces the effect of a double concentration of agonist to that of a single one)^14. The antagonists were applied 10 min before measuring the myotropic effects of either BK (the B2 receptor agonist) or desArg^9BK (the B1 receptor agonist). […] All kinin antagonists were initially applied to tissues at concentration of 10 μg/mL to measure their potential agonistic activities (α^E) in comparison with BK (in the B2 receptor preparations) or desArg^9BK (in the B1 receptor preparations).

[4] = molecular target: T4, B2 receptor (Oryctolagus cuniculus, UniProt Q28642); test: cell-based
T4 sequence (Q28642 1-367): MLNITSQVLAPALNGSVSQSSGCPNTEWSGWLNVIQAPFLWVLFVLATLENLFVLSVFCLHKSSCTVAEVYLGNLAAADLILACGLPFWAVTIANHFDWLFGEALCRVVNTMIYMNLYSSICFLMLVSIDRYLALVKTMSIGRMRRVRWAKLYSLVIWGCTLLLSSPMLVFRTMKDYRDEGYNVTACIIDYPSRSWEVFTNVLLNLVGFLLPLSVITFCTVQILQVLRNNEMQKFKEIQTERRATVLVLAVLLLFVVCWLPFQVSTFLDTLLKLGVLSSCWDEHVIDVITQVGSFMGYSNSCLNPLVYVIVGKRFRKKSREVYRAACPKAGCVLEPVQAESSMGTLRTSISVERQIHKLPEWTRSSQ
In short: as §1

[5] = antagonist applied 10 min before, Inactive = no detectable antagonistic effect at ≦ 10 μg/ml
[6] = residual agonistic activity at 10 μg/mL in comparison with BK

## CC(C)C[C@H](NC(=O)[C@H]1Cc2ccccc2CN1C(=O)[C@H](CO)NC(=O)[C@H](Cc1ccccc1)NC(=O)CNC(=O)[C@@H]1CCCN1C(=O)[C@@H]1CCCN1C(=O)[C@@H](N)CCCNC(=N)N)C(=O)O [Compound 8, (D-Tic^7, Leu^8)desArg^9BK] (H-RPPGFS[dTic]L-OH; N-terminus and C-terminus assumed)
[1]; [5]
  Kb: 1380 nM
[2]
  G.P.I. pA2: Inactive
[3]
  Human umbilical vein B2 receptor pA2: Inactive

## CNCC(=O)N[C@@H](CCCNC(=N)N)C(=O)N1CCC[C@H]1C(=O)N1CCC[C@H]1C(=O)NCC(=O)N[C@@H](Cc1ccccc1)C(=O)N[C@@H](CO)C(=O)N1Cc2ccccc2C[C@@H]1C(=O)N[C@@H](CC(C)C)C(=O)O [Compound 9, Sar(D-Tic^7, Leu^8)desArg^9BK] (H-[Sar]RPPGFS[dTic]L-OH; N-terminus and C-terminus assumed)
[1]; [5]
  Kb: 692 nM
[2]
  G.P.I. pA2: Inactive

## CC(C)C[C@H](NC(=O)[C@H]1Cc2ccccc2CN1C(=O)[C@H](CO)NC(=O)[C@H](Cc1ccccc1)NC(=O)CNC(=O)[C@@H]1CCCN1C(=O)[C@@H]1CCCN1C(=O)[C@H](CCCNC(=N)N)NC(=O)[C@H](N)CCCNC(=N)N)C(=O)O [Compound 12, D-Arg(D-Tic^7, Leu^8)desArg^9BK] (H-[dR]RPPGFS[dTic]L-OH; N-terminus and C-terminus assumed)
[1]; [5]
  Kb: 200 nM
[2]
  G.P.I. pA2: Inactive
[4]
  Kb: 4470 nM

## CC[C@H](C)[C@H](NC(=O)[C@H]1Cc2ccccc2CN1C(=O)[C@H](CO)NC(=O)[C@H](Cc1ccccc1)NC(=O)CNC(=O)[C@@H]1CCCN1C(=O)[C@@H]1CCCN1C(=O)[C@H](CCCNC(=N)N)NC(=O)[C@H](N)CCCNC(=N)N)C(=O)O [Compound 13, D-Arg(D-Tic^7, Ile^8)desArg^9BK] (H-[dR]RPPGFS[dTic]I-OH; N-terminus and C-terminus assumed)
[1]; [5]
  Kb: 107 nM
[1]; apparent affinity as antagonist vs desArg9BK, antagonist applied 10 min before, Inactive = no detectable antagonistic effect at ≦ 10 μg/ml
  Rb.A. pA2: 6.97
[2]
  G.P.I. pA2: Inactive
[4]
  Kb: 4570 nM
[3]
  Human umbilical vein B2 receptor pA2: Inactive

## CC(C)C[C@H](NC(=O)[C@H]1Cc2ccccc2CN1C(=O)[C@H](CO)NC(=O)[C@H](Cc1ccccc1)NC(=O)CNC(=O)[C@@H]1C[C@@H](O)CN1C(=O)[C@@H]1CCCN1C(=O)[C@H](CCCNC(=N)N)NC(=O)[C@H](N)CCCNC(=N)N)C(=O)O [Compound 17, D-Arg(Hyp^3, D-Tic^7, Leu^8)desArg^9BK] (H-[dR]RP[Hyp]GFS[dTic]L-OH; N-terminus and C-terminus assumed)
[1]; [5]
  Kb: 229 nM
[2]
  G.P.I. pA2: Inactive
[4]
  Kb: > 9120 nM

## CC[C@H](C)[C@H](NC(=O)[C@@H](Cc1ccc2ccccc2c1)NC(=O)[C@H](CO)NC(=O)[C@H](Cc1ccccc1)NC(=O)CNC(=O)[C@@H]1CCCN1C(=O)[C@@H]1CCCN1C(=O)[C@H](CCCN=C(N)N)NC(=O)[C@H](CCCCN)NC(C)=O)C(=O)O [Compound 19, AcLys(D-βNal^7, Ile^8)desArg^9BK] (Ac-KRPPGFS[d2Nal]I-OH)
[1]; [5]
  Kb: 3.98 nM

## CC[C@H](C)[C@H](NC(=O)[C@@H](Cc1ccc2ccccc2c1)NC(=O)[C@H](CO)NC(=O)[C@H](Cc1ccccc1)NC(=O)CNC(=O)[C@@H]1CCCN1C(=O)[C@@H]1CCCN1C(=O)[C@H](CCCNC(=N)N)NC(=O)[C@H](N)CCCNC(=N)N)C(=O)O [Compound 23, D-Arg(D-βNal^7, Ile^8)desArg^9BK] (H-[dR]RPPGFS[d2Nal]I-OH; N-terminus and C-terminus assumed)
[1]; [5]
  Kb: 19.1 nM
[4]
  Kb: 427 nM

## CC[C@H](C)[C@H](NC(=O)[C@@H](Cc1ccc2ccccc2c1)NC(=O)[C@H](CO)NC(=O)[C@H](Cc1ccccc1)NC(=O)CNC(=O)[C@@H]1CCCN1C(=O)[C@@H]1CCCN1C(=O)[C@H](CCCNC(=N)N)NC(=O)[C@H](N)CCCCN)C(=O)O [Compound 25, D-Lys(D-βNal^7, Ile^8)desArg^9BK] (H-[dK]RPPGFS[d2Nal]I-OH; N-terminus and C-terminus assumed)
[1]; [5]
  Kb: 19.5 nM
[4]
  Kb: 3720 nM

## CC[C@H](C)[C@H](NC(=O)[C@@H](Cc1ccc2ccccc2c1)NC(=O)[C@H](CO)NC(=O)[C@H](Cc1ccccc1)NC(=O)CNC(=O)[C@@H]1CCCN1C(=O)[C@@H]1CCCN1C(=O)[C@H](CCCNC(=N)N)NC(=O)CNC)C(=O)O [Compound 26, Sar(D-βNal^7, Ile^8)desArg^9BK] (H-[Sar]RPPGFS[d2Nal]I-OH; N-terminus and C-terminus assumed)
[1]; [5]
  Kb: 38 nM
[4]
  Kb: 9120 nM
[3]
  Human umbilical vein B2 receptor pA2: Inactive

## CC(=O)N[C@@H](Cc1ccc(O)cc1)C(=O)NCCCCCC(=O)N[C@@H](CCCCN)C(=O)N[C@@H](CCCNC(=N)N)C(=O)N1CCC[C@H]1C(=O)N1CCC[C@H]1C(=O)NCC(=O)N[C@@H](Cc1ccccc1)C(=O)N[C@@H](CO)C(=O)N1CCC[C@H]1C(=O)N[C@@H](CC(C)C)C(=O)O [Compound 27, AcTyrεAhxLys(Leu^8)desArg^9BK]
[1]; [5]
  Kb: 7.94 nM
[1]; residual agonistic activity at 10 μg/mL in comparison with desArg9BK
  Rb.A. α^E: 0
[2]; [6]
  G.P.I. α^E: 0.30
[2]
  G.P.I. pA2: P.ag.
[4]; [6]
  Rb.J.V. α^E: 0.03

## CNCC(=O)N[C@@H](Cc1ccc(O)cc1)C(=O)NCCCCCC(=O)N[C@@H](CCCCN)C(=O)N[C@@H](CCCNC(=N)N)C(=O)N1CCC[C@H]1C(=O)N1CCC[C@H]1C(=O)NCC(=O)N[C@@H](Cc1ccccc1)C(=O)N[C@@H](CO)C(=O)N1CCC[C@H]1C(=O)N[C@@H](CC(C)C)C(=O)O [Compound 28, SarTyrεAhxLys(Leu^8)desArg^9BK]
[1]; [5]
  Kb: 6.76 nM
[2]
  G.P.I. pA2: Inactive
